Assay results reported in patent US9968635B2, “Treatment of skin and soft tissue infection with nitric oxide” (priority 2012, dated 2018).

Columns and labels:
[1] = system: capillary circulation of the skin; assay: Laser Doppler study of creams in five human subjects (Example 7); format: in vivo; settings: positive control formulation containing 0.1% methyl nicotinate
From the text: This example illustrates delivery of nitric oxide formulations to five human subjects, using procedures and formulations similar to those discussed in Example 5. Each person served as their own control for the testing. A Moor Instruments Laser Doppler was used to determine circulation. […] The formulations used produce positive, almost immediate results when applied to the skin which, in these studies, was manifested by vasodilatation of the cutaneous vascular system. For each subject, the following creams were applied: a negative control formulation (containing no NO), 0.010 gram of a 10,000 ppm NO formulation, 0.020 gram of a 10,000 ppm NO formulation, and a positive control formulation containing 0.1% methyl nicotinate. The formulations were prepared using procedures similar to those discussed in Example 1.

[2] = system: micro-capillary blood flow to skin; assay: Laser Doppler study with closed Hilltop chamber on forearm, 10,000 ppm NO (Example 5); format: in vivo, human; settings: applied to the skin at 1/10% in alcohol
From the text: The formulation used in these studies contained nitric oxide dispersed in a lipid matrix. […] Nitric oxide is a very rapid acting molecule, and these studies used a system that employed laser Doppler with a covered chamber. The formulation was placed into the chamber and then attached to the skin by an adhesive layer on the covering. This provided a stable measuring device as determined by multiple normal evaluations of the capillary blood flow without treatment of nitric oxide.
A known positive control, methyl nicotinate, was applied to the skin at a concentration of 1/10% in alcohol. […] The vascular dynamics are such that when the blood vessels dilate physical parameters follow Bernoulli's law. […] The laser Doppler device accurately measured these parameters.
In these studies, the participants were healthy females aged 30 to 55 years. They were in good health as determined by the medical history and were not taking any prescription medications. All study participants read and signed the informed consent statement prior to any study procedures being performed. […]
A Moor Instruments DRT4 Laser Doppler Blood Flow Monitor (Devon, England) was used in these studies. The laser Doppler technique measured blood flow in the microcapillaries of the skin that are close to the skin surface and the blood flow in underlying arterioles and venules that help to regulate skin temperature. […]

[3] = Weight gain of carriers on bubbling nitric oxide gas; format: physicochemical; settings: NO gas bubbled 40 hr, 25 °C
Method: This example illustrates one technique for preparing a composition in accordance with one embodiment of the invention. An accurate amount of a carrier (HNC 167-62) (see below) was introduced into a system. The carrier weight used in these experiments was approximately 250 g and the vessel size was 500 ml. The vessel was equipped with a mechanical stirrer, gas inlet, and gas outlet and was previously purged with argon for about an hour. The temperature of the carrier was kept at about 25-30° C. NO gas regulated at 5 psi (1 psi is about 6,900 Pa) and was then introduced at a controlled rate of about 1 bubble/s with continuous stirring. […] After 6 hours, the weight of the carrier had increased by 0.15%, by 12 hours by 0.25%, and by 24 hours by 0.56%. These increases in weight were believed to be significant considering the relative small molecular weight of NO versus the carrier. […] The carrier also can solidify upon cooling if the carrier is initially a solid at lower temperature.
Each carrier was taken in a 500 mL three necked flask equipped with a mechanical stirrer, gas inlet and a gas outlet. The system was purged with argon for one hour at room temperature (25° C.). Then nitric oxide gas was bubbled into the system. Then, nitric oxide gas was bubbled through carrier for stipulated amount of time. The changes in weight and color were noted. […]

SMILES	vasodilatation [1]	laser Doppler response of positive control [2]	% Wt. gain [3]	Wt. Gain [3]
COC(=O)c1cccnc1 [methyl nicotinate]	vasodilatation was observed	rapid response typical of the vasodilator	–	–
OCCCO [1,3-Propanediol, 1,3-propanediol]	–	–	0.09%	0.16 g
